Measured values taken from US8802597B2, “Herbicidal pyrimidines” (E I du Pont de Nemours and Company, priority 2003, dated 2014).
Read-outs that look alike come from different tables or passages of the source.

How the values were obtained:
Experiment in all cases: Test C pre/postemergence
Type in all cases: in vivo
[1] = test system: pigweed (Amaranthus retroflexus); details: Amaranthus retroflexus; for pest or weed control at 125 g/ha: 125 g ai/ha; for pest or weed control at 250 g/ha: 250 g ai/ha
How it was run: (§1)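 Applications: preemergence onto seeded soil and postemergence onto 1- to 4-leaf seedlings, compound carried in non-phytotoxic solvent plus surfactant. Kept in greenhouse 12 to 14 days. Scored visually relative to untreated controls, 0 (no effect) to 100 (complete control).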

[2] = test system: bermudagrass (Cynodon dactylon); details: Cynodon dactylon; for pest or weed control at 31 g/ha: 31 g ai/ha; for pest or weed control at 62 g/ha: 62 g ai/ha; for pest or weed control at 125 g/ha: 125 g ai/ha; for pest or weed control at 125 g/ha / pest or weed control at 250 g/ha: scale 0 to 100; for pest or weed control at 250 g/ha: 250 g ai/ha
How it was run: as §1

[3] = test system: giant foxtail (Setaria faberii); details: Setaria faberi; for pest or weed control at 125 g/ha: 125 g ai/ha; for pest or weed control at 31 g/ha: 31 g ai/ha; for pest or weed control at 62 g/ha: 62 g ai/ha; for pest or weed control at 250 g/ha: 250 g ai/ha
How it was run: as §1

[4] = test system: crabgrass (Digitaria sanguinalis); details: Digitaria sanguinalis; for pest or weed control at 31 g/ha: 31 g ai/ha; for pest or weed control at 62 g/ha: 62 g ai/ha; for pest or weed control at 125 g/ha: 125 g ai/ha; for pest or weed control at 250 g/ha: 250 g ai/ha
How it was run: as §1

[5] = test system: johnsongrass (Sorghum halepense); details: Sorghum halepense; for pest or weed control at 31 g/ha: 31 g ai/ha; for pest or weed control at 62 g/ha: 62 g ai/ha; for pest or weed control at 125 g/ha: 125 g ai/ha; for pest or weed control at 250 g/ha: 250 g ai/ha
How it was run: as §1

[6] = test system: morningglory (Ipomoea coccinea); details: Ipomoea; for pest or weed control at 31 g/ha: 31 g ai/ha; for pest or weed control at 62 g/ha: 62 g ai/ha; for pest or weed control at 125 g/ha: 125 g ai/ha; for pest or weed control at 250 g/ha: 250 g ai/ha
How it was run: as §1

[7] = pre-emergence, Preemergence, scale 0 to 100, read-out: Plant response rating, Pigweed
[8] = post-emergence, Postemergence, read-out: Plant response rating, Bermudagrass
[9] = pre-emergence, Preemergence, scale 0 to 100, 0 no effect, 100 complete control, read-out: Plant response rating, Bermudagrass
[10] = pre-emergence, Preemergence, read-out: Plant response rating, Bermudagrass
[11] = post-emergence, Postemergence, scale 0 to 100 (0 no effect, 100 complete control), read-out: Foxtail, Giant plant response rating
[12] = pre-emergence, Preemergence, scale 0 to 100, 0 no effect, 100 complete control, read-out: Plant response rating, Foxtail, Giant
[13] = pre-emergence, Preemergence, scale 0 to 100, read-out: Plant response rating, Foxtail, Giant
[14] = post-emergence, Postemergence, scale 0 to 100 (0 no effect, 100 complete control), read-out: Crabgrass plant response rating
[15] = pre-emergence, Preemergence, scale 0 to 100, 0 no effect, 100 complete control, read-out: Plant response rating, Crabgrass
[16] = pre-emergence, Preemergence, scale 0 to 100, read-out: Plant response rating, Crabgrass
[17] = post-emergence, Postemergence, scale 0 to 100 (0 no effect, 100 complete control), read-out: Johnsongrass plant response rating
[18] = pre-emergence, Preemergence, scale 0 to 100, 0 no effect, 100 complete control, read-out: Plant response rating, Johnsongrass
[19] = pre-emergence, Preemergence, scale 0 to 100, read-out: Plant response rating, Johnsongrass
[20] = post-emergence, Postemergence, scale 0 to 100 (0 no effect, 100 complete control), read-out: Morningglory plant response rating
[21] = pre-emergence, Preemergence, scale 0 to 100, 0 no effect, 100 complete control, read-out: Plant response rating, Morningglory
[22] = pre-emergence, Preemergence, scale 0 to 100, read-out: Plant response rating, Morningglory

With COC(=O)c1nc(C2CC2)nc(N)c1Br [Compound 2, methyl 6-amino-5-bromo-2-cyclopropyl-4-pyrimidinecarboxylate] the pest or weed control at 125 g/ha ([1]; post-emergence, Postemergence, scale 0 to 100 (0 no effect, 100 complete control), read-out: Pigweed plant response rating) was 95%, the pest or weed control at 250 g/ha ([1]; post-emergence, Postemergence, scale 0 to 100, read-out: Plant response rating, Pigweed) was 100% and the pest or weed control at 31 g/ha ([1]; pre-emergence, Preemergence, 31 g ai/ha, scale 0 to 100, 0 no effect, 100 complete control, read-out: Plant response rating, Pigweed) was 90%. It also gave a pest or weed control at 62 g/ha ([1]; pre-emergence, Preemergence, 62 g ai/ha, scale 0 to 100, 0 no effect, 100 complete control, read-out: Plant response rating, Pigweed) of 95%, a pest or weed control at 125 g/ha [1, 7] of 95% and a pest or weed control at 250 g/ha [1, 7] of 100%. The pest or weed control at 31 g/ha ([2]; post-emergence, Postemergence, read-out: Plant response rating (scale of 0 to 100), Bermudagrass) was 15%, the pest or weed control at 62 g/ha ([2]; post-emergence, Postemergence, scale 0 to 100 (0 no effect, 100 complete control), read-out: Bermudagrass plant response rating) was 60% and the pest or weed control at 125 g/ha [2, 8] was 70%. For the same molecule, the pest or weed control at 250 g/ha [2, 8] was 80%, the pest or weed control at 31 g/ha [2, 9] was 0% and the pest or weed control at 62 g/ha [2, 9] was 0%. The pest or weed control at 125 g/ha [2, 10] was 0%, the pest or weed control at 250 g/ha [2, 10] was 0% and the pest or weed control at 125 g/ha [3, 11] was 65%. The pest or weed control at 31 g/ha ([3]; post-emergence, Postemergence, read-out: Plant response rating (scale of 0 to 100), Foxtail, Giant) was 0%, the pest or weed control at 62 g/ha [3, 11] was 35% and the pest or weed control at 250 g/ha ([3]; post-emergence, Postemergence, scale 0 to 100, read-out: Plant response rating, Foxtail, Giant) was 70%. For the same molecule, the pest or weed control at 31 g/ha [3, 12] was 0%, the pest or weed control at 62 g/ha [3, 12] was 0% and the pest or weed control at 125 g/ha [3, 13] was 0%. The pest or weed control at 250 g/ha [3, 13] was 30%, the pest or weed control at 31 g/ha ([4]; post-emergence, Postemergence, read-out: Plant response rating (scale of 0 to 100), Crabgrass) was 40% and the pest or weed control at 62 g/ha [4, 14] was 55%. The pest or weed control at 125 g/ha [4, 14] was 60%, the pest or weed control at 250 g/ha ([4]; post-emergence, Postemergence, scale 0 to 100, read-out: Plant response rating, Crabgrass) was 70% and the pest or weed control at 31 g/ha [4, 15] was 0%. It also gave a pest or weed control at 62 g/ha [4, 15] of 0%, a pest or weed control at 125 g/ha [4, 16] of 0% and a pest or weed control at 250 g/ha [4, 16] of 50%. The pest or weed control at 31 g/ha ([5]; post-emergence, Postemergence, read-out: Plant response rating (scale of 0 to 100), Johnsongrass) was 0%, the pest or weed control at 62 g/ha [5, 17] was 0% and the pest or weed control at 125 g/ha [5, 17] was 25%. It also gave a pest or weed control at 250 g/ha ([5]; post-emergence, Postemergence, scale 0 to 100, read-out: Plant response rating, Johnsongrass) of 60%, a pest or weed control at 31 g/ha [5, 18] of 0% and a pest or weed control at 62 g/ha [5, 18] of 0%. The pest or weed control at 125 g/ha [5, 19] was 0%, the pest or weed control at 250 g/ha [5, 19] was 40% and the pest or weed control at 31 g/ha ([6]; post-emergence, Postemergence, read-out: Plant response rating (scale of 0 to 100), Morningglory) was 70%. For the same molecule, the pest or weed control at 62 g/ha [6, 20] was 75%, the pest or weed control at 125 g/ha [6, 20] was 100% and the pest or weed control at 250 g/ha ([6]; post-emergence, Postemergence, scale 0 to 100, read-out: Plant response rating, Morningglory) was 100%. The pest or weed control at 31 g/ha [6, 21] was 100%, the pest or weed control at 62 g/ha [6, 21] was 100% and the pest or weed control at 125 g/ha [6, 22] was 100%. It also gave a pest or weed control at 250 g/ha [6, 22] of 100%.
